Assay results published in PubChem BioAssay (NCI).
Where “and” joins values, the source holds several entries; their conditions need not be identical. Equal entries are not always repeated.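 Compound exposure: 48 hours, 5 concentrations, 96-well plates. At the GI50, growth is halved. At the TGI there is no net growth.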

Key:
Test in all cases: NCI anticancer screen, dose series, 48 h
SF-268 CNS = system: SF-268 CNS
EKVX NSCLC = system: EKVX NSCLC
KM20L2 colon = system: KM20L2 colon
NCI-H522 lung = system: NCI-H522 lung
DLD-1 colon = system: DLD-1 colon
SNB-75 CNS = system: SNB-75 CNS
LOX IMVI melanoma = system: LOX IMVI melanoma
RXF 393 renal = system: RXF 393 renal
HCC-2998 colon = system: HCC-2998 colon
SK-MEL-2 melanoma = system: SK-MEL-2 melanoma

Row | Structure (SMILES) | TGI (SF-268 CNS) | TGI (EKVX NSCLC) | TGI (KM20L2 colon) | TGI (NCI-H522 lung) | TGI (DLD-1 colon) | TGI (SNB-75 CNS) | TGI (LOX IMVI melanoma) | TGI (RXF 393 renal) | TGI (HCC-2998 colon) | TGI (SK-MEL-2 melanoma) | GI50 (SF-268 CNS) | GI50 (EKVX NSCLC) | GI50 (KM20L2 colon) | GI50 (NCI-H522 lung) | GI50 (DLD-1 colon) | GI50 (SNB-75 CNS) | GI50 (LOX IMVI melanoma) | GI50 (HCC-2998 colon) | GI50 (RXF 393 renal) | GI50 (SK-MEL-2 melanoma)
1 | CC1(C)Cc2nnsc2C2=C1C(=O)CCS2 | > 100 µM | > 100 µM | > 100 µM | > 100 µM | > 100 µM | > 100 µM | > 100 µM | > 100 µM | > 100 µM | > 100 µM |  |  |  |  |  |  |  |  |  | 
2 | C[CH2][Ge]([CH2]C)([CH2]C)[O]C(=O)C([O][Ge]([CH2]C)([CH2]C)[CH2]C)c1ccccc1 (centres undefined) | > 100 µM | 75.1 µM | 42.8 µM | 27.3 µM | > 100 µM | 62.7 µM | 24.5 µM | 16.1 µM | 38.5 µM |  | 25.8 µM | 9.4 µM | 17 µM | 11 µM | 20.3 µM | 18.3 µM | 12 µM | 19.2 µM |  | 
3 | CN(C)CCC(/C=C/c1ccccc1)=N\Nc1ccc(Cl)cc1 | 6.56 µM | 11.4 µM | 3.62 µM | 7.77 µM | 11.1 µM | 15.6 µM | 3.57 µM | 20.9 µM | 3.53 µM | 4.4 µM |  |  |  |  |  |  |  |  |  | 
4 | Cc1[nH]c(=O)nc(N/N=C/c2ccc(Cl)cc2)c1C(=O)Nc1ccc(Cl)cc1 | > 100 µM | > 100 µM | > 100 µM | 64.1 µM | > 100 µM | 14.6 µM | > 90.8 µM | 32.9 µM | > 100 µM | > 100 µM |  |  |  |  |  |  |  |  |  | 
5 | Cc1cc(Cl)ccc1N1C(=O)C(=O)C(c2nc3ccccc3o2)C(=O)C1=O | > 100 µM | > 100 µM | > 100 µM | > 100 µM | > 100 µM | > 100 µM |  | > 100 µM | > 100 µM | > 100 µM |  |  |  |  |  |  |  |  |  | 
6 | Cc1cc(Cl)cc2c1NC(=O)C2(O)CC(=O)c1ccc(F)cc1 (centres undefined) | > 100 µM | > 100 µM | > 100 µM |  | > 100 µM | > 100 µM | > 100 µM | 41.5 µM | > 100 µM | > 100 µM |  |  |  |  |  |  |  |  |  | 
7 | CN(C)CCC(=O)N1CCc2c([nH]c3ccccc23)C1c1cccnc1 (centres undefined) | > 100 µM | > 100 µM | > 100 µM | > 100 µM | > 100 µM | > 100 µM | > 100 µM | 59.7 µM | > 100 µM |  |  |  |  |  |  |  |  |  |  | 
8 | COc1cccc2c1C(=O)c1c(O)c3c(c(O)c1C2=O)C[C@@](O)(C(C)=O)C[C@@H]3OC1CC(O)C(O)C(C)O1 (some centres undefined) | 9.38 µM and 12.8 µM | 27.2 µM |  | 9.44 µM and 7.38 µM | 15.9 µM |  | 3.77 µM and 2.6 µM | 9.33 µM | 12.8 µM | 9.44 µM and 15.2 µM |  |  |  |  |  |  |  |  |  | 
9 | COc1ccc(C(=O)C/C(=N/NC(N)=S)C(=O)Nc2ccccc2)cc1 | > 100 µM | > 100 µM | > 100 µM |  | > 100 µM | > 100 µM | > 100 µM | > 100 µM | > 100 µM | > 100 µM |  |  |  |  |  |  |  |  |  | 
10 | NC1=NCC(c2ccccn2)C1c1ccc(F)cc1 (centres undefined) | > 100 µM | > 100 µM | > 100 µM | > 100 µM | > 100 µM | > 100 µM | > 100 µM | > 100 µM | > 100 µM | > 100 µM |  |  |  |  |  |  |  |  |  | 
11 | CCP(C)(C)=O | > 100 µM | > 100 µM | > 100 µM |  | > 100 µM | > 100 µM | > 100 µM | > 100 µM | > 100 µM | > 100 µM |  |  |  |  |  |  |  |  |  | 
12 | Cc1cccc(C)c1NC(=O)CCCC(=O)C(C#N)c1ccc(Cl)cc1 (centres undefined) | > 100 µM | > 100 µM | > 100 µM | > 100 µM | > 100 µM | > 100 µM | > 100 µM |  | > 100 µM | > 100 µM |  |  |  |  |  |  |  |  |  | 
13 | Clc1ccc(N/N=C(\c2ccccc2)c2ccccn2)nc1 | 21.1 µM and 4.08 µM |  |  | 2.77 µM |  |  | 4.48 µM | 7.38 µM and 28.5 µM | > 48.4 µM and 21.1 µM | > 95.1 µM and 32.3 µM | 0.324 µM | 0.0726 µM |  | 0.0805 µM |  | 0.614 µM | 0.246 µM | 0.341 µM | 0.275 µM | 0.796 µM
14 | COC1C(O)CC(OC2CC(OC3CC(O[C@@H]4C(=O)c5c(cc6cc(OC7CC(OC8CC(O)C(O)C(C)O8)C(O)C(C)O7)c(C)c(O)c6c5O)C[C@H]4[C@H](OC)C(=O)[C@@H](O)[C@@H](C)O)OC(C)C3O)OC(C)C2O)OC1C (some centres undefined) | > 94 µM | 8.06 µM | 0.533 µM | 0.0358 µM | > 100 µM | 0.447 µM | > 100 µM |  | 0.114 µM | < 0.0205 µM |  |  |  |  |  |  | 0.0164 µM |  |  | 
15 | CCCC(CCC)Oc1ccc(CCCC2=C(O)c3ccccc3C(=O)C2=O)cc1 | 18.9 µM | 18 µM |  | 22.2 µM |  | 26.3 µM | 10.5 µM | 21.5 µM | 10.1 µM | 28 µM | 5.22 µM | 5.61 µM |  | 5.75 µM |  | 11.3 µM | 3.34 µM | 2.8 µM | 5.75 µM | 6.85 µM
16 | COc1ccc(C2N3CCCCC3[C@@H]3c4[nH]c5ccccc5c4CCN23)c(OC)c1 (some centres undefined) | 53 µM | > 100 µM | 41.9 µM |  | > 100 µM |  |  | 34.6 µM |  | 34.7 µM |  |  |  |  |  |  |  |  |  | 
17 | CC(C)c1ccc(/C=N/N=C(N)N)cc1 | 25.1 µM | 24.4 µM |  | 12.9 µM |  | 26 µM | 14.7 µM | 16.6 µM | 4.78 µM | 5.61 µM |  | 5.33 µM |  | 3.22 µM |  | 5.68 µM | 3.49 µM | 2.04 µM | 3.8 µM | 2.64 µM
18 | O=C1Nc2ccc(CN3CCOC3=O)cc2/C1=C/c1cc(CN2CCOCC2)c[nH]1 | > 100 µM | > 100 µM |  | > 100 µM |  | > 100 µM | > 100 µM | > 72.3 µM | > 100 µM | > 100 µM | > 86.5 µM | 37.5 µM |  | 36.1 µM |  | 52.8 µM | 48.4 µM | 61 µM | 18.3 µM | 39.2 µM
19 | CN(N=O)C(=O)Nc1ccc(C(=O)O)cc1 | > 100 µM | > 100 µM |  | > 100 µM |  | > 100 µM | > 100 µM | > 100 µM | > 100 µM | > 100 µM |  |  |  |  |  |  |  |  |  | 
